Patent US20240368173A1, “TRICYCLIC GPR65 MODULATORS” (PATHIOS THERAPEUTICS LIMITED, priority 2021, published 2024)

Target: human recombinant GPR65 (Homo sapiens, UniProt Q8IYL9)
Assay: Human GPR65 cAMP HTRF antagonist assay
Format: cell-based
Details: not given
Method in brief: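 1321N1 astrocytoma cells stably expressing hrGPR65, with IBMX and EDTA, were preincubated with compound 30 min at room temperature, then acid-activated at assay pH 7.2 (control pH 7.9) for 30 min. cAMP read by HTRF (665/620 nm ratio); IC50 from 4-parameter fit normalised to high/low controls.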

human recombinant GPR65, sequence (Q8IYL9 whole entry): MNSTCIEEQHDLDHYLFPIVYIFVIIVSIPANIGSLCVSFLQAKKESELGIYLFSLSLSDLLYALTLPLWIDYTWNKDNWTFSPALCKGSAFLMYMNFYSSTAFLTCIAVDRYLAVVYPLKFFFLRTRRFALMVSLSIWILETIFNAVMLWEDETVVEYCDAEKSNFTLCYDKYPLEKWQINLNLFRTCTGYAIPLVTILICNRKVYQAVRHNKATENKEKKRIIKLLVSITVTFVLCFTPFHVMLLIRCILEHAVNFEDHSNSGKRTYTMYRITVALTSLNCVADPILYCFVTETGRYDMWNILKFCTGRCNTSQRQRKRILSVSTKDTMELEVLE

| SMILES | IC50 |
| --- | --- |
| CS(=O)(=O)c1ccc(-c2cc(F)c(NC(=O)N3[C@H]4CC[C@@H]3c3n[nH]c(=O)cc3C4)cc2Cl)cc1F [Compound 132, (6S,9R)-N-(2-Chloro-3′,5-difluoro-4′-(methylsulfonyl)-[1,1′-biphenyl]-4-yl)-3-oxo-3,5,6,7,8,9-hexahydro-2H-6,9-epiminocyclohepta[c]pyridazine-10-carboxamide] | < 500 nM |
| Cc1cc(-c2cc(F)c(NC(=O)N3[C@H]4CC[C@@H]3c3n[nH]c(=O)cc3C4)cc2Cl)ccn1 [Compound 134, (6S,9R)-N-(5-Chloro-2-fluoro-4-(2-methylpyridin-4-yl)phenyl)-3-oxo-3,5,6,7,8,9-hexahydro-2H-6,9-epiminocyclohepta[c]pyridazine-10-carboxamide] | < 500 nM |
| O=C(Nc1cc(Cl)c(-c2cccnc2)cc1F)N1[C@H]2CC[C@@H]1c1n[nH]c(=O)cc1C2 [Compound 136, (6S,9R)-N-(5-Chloro-2-fluoro-4-(pyridin-3-yl)phenyl)-3-oxo-3,5,6,7,8,9-hexahydro-2H-6,9-epiminocyclohepta[c]pyridazine-10-carboxamide] | < 500 nM |
| O=C(Nc1cc(Cl)c(-c2ccncc2F)cc1F)N1[C@H]2CC[C@@H]1c1n[nH]c(=O)cc1C2 [Compound 138, (6S,9R)-N-(5-Chloro-2-fluoro-4-(3-fluoropyridin-4-yl)phenyl)-3-oxo-3,5,6,7,8,9-hexahydro-2H-6,9-epiminocyclohepta[c]pyridazine-10-carboxamide] | < 500 nM |
| Cn1ncc(-c2cc(F)c(NC(=O)N3[C@H]4CC[C@@H]3c3n[nH]c(=O)cc3C4)cc2Cl)n1 [Compound 139, (6S,9R)-N-(5-Chloro-2-fluoro-4-(2-methyl-2H-1,2,3-triazol-4-yl)phenyl)-3-oxo-3,5,6,7,8,9-hexahydro-2H-6,9-epiminocyclohepta[c]pyridazine-10-carboxamide] | < 500 nM |
| Cn1nnc2ccc(-c3cc(F)c(NC(=O)N4[C@H]5CC[C@@H]4c4n[nH]c(=O)cc4C5)cc3Cl)cc21 [Compound 141, (6S,9R)-N-(5-Chloro-2-fluoro-4-(1-methyl-1H-benzo[d][1,2,3]triazol-6-yl)phenyl)-3-oxo-3,5,6,7,8,9-hexahydro-2H-6,9-epiminocyclohepta[c]pyridazine-10-carboxamide] | < 500 nM |
| O=C(Nc1cc(Cl)c(-c2cnn(CC3CC3)c2)cc1F)N1[C@H]2CC[C@@H]1c1n[nH]c(=O)cc1C2 [Compound 144, (6S,9R)-N-(5-Chloro-4-(1-(cyclopropylmethyl)-1H-pyrazol-4-yl)-2-fluorophenyl)-3-oxo-3,5,6,7,8,9-hexahydro-2H-6,9-epiminocyclohepta[c]pyridazine-10-carboxamide] | < 500 nM |
| O=C(Nc1cc(Cl)c(-c2cnn(-c3ccncc3)c2)cc1F)N1[C@H]2CC[C@@H]1c1n[nH]c(=O)cc1C2 [Compound 145, (6S,9R)-N-(5-Chloro-2-fluoro-4-(1-(pyridin-4-yl)-1H-pyrazol-4-yl)phenyl)-3-oxo-3,5,6,7,8,9-hexahydro-2H-6,9-epiminocyclohepta[c]pyridazine-10-carboxamide] | < 500 nM |
| CN1C(=O)COc2ccc(-c3cc(F)c(NC(=O)N4[C@H]5CC[C@@H]4c4n[nH]c(=O)cc4C5)cc3Cl)cc21 [Compound 147, (6S,9R)-N-(5-Chloro-2-fluoro-4-(4-methyl-3-oxo-3,4-dihydro-2H-benzo[b][1,4]oxazin-6-yl)phenyl)-3-oxo-3,5,6,7,8,9-hexahydro-2H-6,9-epiminocyclohepta[c]pyridazine-10-carboxamide] | < 500 nM |
| O=C(Nc1cc(Cl)c(-c2ccnc3[nH]ccc23)cc1F)N1[C@H]2CC[C@@H]1c1n[nH]c(=O)cc1C2 [Compound 148, (6S,9R)-N-(5-Chloro-2-fluoro-4-(1H-pyrrolo[2,3-b]345yridine-4-yl)phenyl)-3-oxo-3,5,6,7,8,9-hexahydro-2H-6,9-epiminocyclohepta[c]pyridazine-10-carboxamide] | 500 to 5000 nM |
| Cc1nn(C)c(C)c1-c1cc(F)c(NC(=O)N2[C@H]3CC[C@@H]2c2n[nH]c(=O)cc2C3)cc1Cl [Compound 150, (6S,9R)-N-(5-Chloro-2-fluoro-4-(1,3,5-trimethyl-1H-pyrazol-4-yl)phenyl)-3-oxo-3,5,6,7,8,9-hexahydro-2H-6,9-epiminocyclohepta[c]pyridazine-10-carboxamide] | 500 to 5000 nM |
| Cn1ncc2ccc(-c3cc(F)c(NC(=O)N4[C@H]5CC[C@@H]4c4n[nH]c(=O)cc4C5)cc3Cl)cc21 [Compound 152, (6S,9R)-N-(5-Chloro-2-fluoro-4-(1-methyl-1H-indazol-6-yl)phenyl)-3-oxo-3,5,6,7,8,9-hexahydro-2H-6,9-epiminocyclohepta[c]pyridazine-10-carboxamide] | < 500 nM |
| O=C1Cc2ccc(-c3cc(F)c(NC(=O)N4[C@H]5CC[C@@H]4c4n[nH]c(=O)cc4C5)cc3Cl)cc2N1 [Compound 153, (6S,9R)-N-(5-Chloro-2-fluoro-4-(2-oxoindolin-6-yl)phenyl)-3-oxo-3,5,6,7,8,9-hexahydro-2H-6,9-epiminocyclohepta[c]pyridazine-10-carboxamide] | < 500 nM |
| CNc1cnc(F)c2c1[C@H]1CC[C@@H](C2)N1C(=O)Nc1cc(Cl)c(Cl)cc1F [Compound 159, (5R,8S)—N-(4,5-dichloro-2-fluorophenyl)-1-fluoro-4-(methylamino)-6,7,8,9-tetrahydro-5H-5,8-epiminocyclohepta[c]pyridine-10-carboxamide] | < 500 nM |
| O=C(Nc1cc(Cl)c(-c2ccc3nonc3c2)cc1F)N1[C@H]2CC[C@@H]1c1ccnc(F)c1C2 [Compound 162, (5R,8S)-N-(4-(Benzo[c][1,2,5]oxadiazol-5-yl)-5-chloro-2-fluorophenyl)-1-fluoro-6,7,8,9-tetrahydro-5H-5,8-epiminocyclohepta[c]pyridine-10-carboxamide] | < 500 nM |

Same assay, conditions: 1321N1-hrGPR65 cells, cAMP HTRF, assay pH 7.2; read-out: hGPR65 IC50 (Activity of selected compounds according to the invention)

| SMILES | IC50 |
| --- | --- |
| CN(C)Cc1cccc(-c2cc(F)c(NC(=O)N3[C@H]4CC[C@@H]3c3n[nH]c(=O)cc3C4)cc2Cl)c1 [Compound 133, (6S,9R)-N-(2-Chloro-3′-((dimethylamino)methyl)-5-fluoro-[1,1′-biphenyl]-4-yl)-3-oxo-3,5,6,7,8,9-hexahydro-2H-6,9-epiminocyclohepta[c]pyridazine-10-carboxamide] | 500 to 5000 nM |
| O=C(Nc1cc(Cl)c(-c2cccc(CN3CCCC3)c2)cc1F)N1[C@H]2CC[C@@H]1c1n[nH]c(=O)cc1C2 [Compound 135, (6S,9R)-N-(2-Chloro-5-fluoro-3′-(pyrrolidin-1-ylmethyl)-[1,1′-biphenyl]-4-yl)-3-oxo-3,5,6,7,8,9-hexahydro-2H-6,9-epiminocyclohepta[c]pyridazine-10-carboxamide] | 500 to 5000 nM |
| O=C(Nc1cc(Cl)c(-c2cncnc2)cc1F)N1[C@H]2CC[C@@H]1c1n[nH]c(=O)cc1C2 [Compound 137, (6S,9R)-N-(5-Chloro-2-fluoro-4-(pyrimidin-5-yl)phenyl)-3-oxo-3,5,6,7,8,9-hexahydro-2H-6,9-epiminocyclohepta[c]pyridazine-10-carboxamide] | 500 to 5000 nM |
| O=C(Nc1cc(Cl)c(-c2ccc3n[nH]nc3c2)cc1F)N1[C@H]2CC[C@@H]1c1n[nH]c(=O)cc1C2 [Compound 140, (6S,9R)-N-(4-(2H-Benzo[d][1,2,3]triazol-5-yl)-5-chloro-2-fluorophenyl)-3-oxo-3,5,6,7,8,9-hexahydro-2H-6,9-epiminocyclohepta[c]pyridazine-10-carboxamide] | 500 to 5000 nM |
| O=C1NCc2cc(-c3cc(F)c(NC(=O)N4[C@H]5CC[C@@H]4c4n[nH]c(=O)cc4C5)cc3Cl)ccc21 [Compound 142, (6S,9R)-N-(5-Chloro-2-fluoro-4-(1-oxoisoindolin-5-yl)phenyl)-3-oxo-3,5,6,7,8,9-hexahydro-2H-6,9-epiminocyclohepta[c]pyridazine-10-carboxamide] | > 5000 nM |
| O=C(Nc1cc(Cl)c(-c2cncn2C2CCCCO2)cc1F)N1[C@H]2CC[C@@H]1c1n[nH]c(=O)cc1C2 (stereo partly drawn) [Compound 143, (6S,9R)-N-(5-Chloro-2-fluoro-4-(1-(tetrahydro-2H-pyran-2-yl)-1H-imidazol-5-yl)phenyl)-3-oxo-3,5,6,7,8,9-hexahydro-2H-6,9-epiminocyclohepta[c]pyridazine-10-carboxamide] | 500 to 5000 nM |
| O=C1COc2ccc(-c3cc(F)c(NC(=O)N4[C@H]5CC[C@@H]4c4n[nH]c(=O)cc4C5)cc3Cl)cc2N1 [Compound 146, (6S,9R)-N-(5-Chloro-2-fluoro-4-(3-oxo-3,4-dihydro-2H-benzo[b][1,4]oxazin-6-yl)phenyl)-3-oxo-3,5,6,7,8,9-hexahydro-2H-6,9-epiminocyclohepta[c]pyridazine-10-carboxamide] | 500 to 5000 nM |
| Cc1n[nH]c(C)c1-c1cc(F)c(NC(=O)N2[C@H]3CC[C@@H]2c2n[nH]c(=O)cc2C3)cc1Cl [Compound 149, (6S,9R)-N-(5-Chloro-4-(3,5-dimethyl-1H-pyrazol-4-yl)-2-fluorophenyl)-3-oxo-3,5,6,7,8,9-hexahydro-2H-6,9-epiminocyclohepta[c]pyridazine-10-carboxamide] | 500 to 5000 nM |
| O=C1NCCc2cc(-c3cc(F)c(NC(=O)N4[C@H]5CC[C@@H]4c4n[nH]c(=O)cc4C5)cc3Cl)ccc21 [Compound 151, (6S,9R)-N-(5-Chloro-2-fluoro-4-(1-oxo-1,2,3,4-tetrahydroisoquinolin-6-yl)phenyl)-3-oxo-3,5,6,7,8,9-hexahydro-2H-6,9-epiminocyclohepta[c]pyridazine-10-carboxamide] | > 5000 nM |
| N#Cc1cnc(F)c2c1[C@H]1CC[C@@H](C2)N1C(=O)Nc1cc(Cl)c(Cl)cc1F [Compound 160, (5R,8S)-4-Cyano-N-(4,5-dichloro-2-fluorophenyl)-1-fluoro-6,7,8,9-tetrahydro-5H-5,8-epiminocyclohepta[c]pyridine-10-carboxamide] | 500 to 5000 nM |
| CNCCCOc1cnc(F)c2c1[C@H]1CC[C@@H](C2)N1C(=O)Nc1cc(Cl)c(C(F)(F)F)cc1F [Compound 161, (5R,8S)—N-(5-Chloro-2-fluoro-4-(trifluoromethyl)phenyl)-1-fluoro-4-(3-(methylamino)propoxy)-6,7,8,9-tetrahydro-5H-5,8-epiminocyclohepta[c]pyridine-10-carboxamide] | 500 to 5000 nM |
